According to ChEMBL document CHEMBL3576821, “A potent antimicrobial compound isolated from Clathria cervicornis” (2015):
≈ marks a conversion by molar mass, not a printed value.

How the values were obtained:
Format in all cases: functional
Klebsiella pneumoniae = experiment: Antimicrobial activity against Klebsiella pneumoniae ATCC 13883 assessed as bacterial growth inhibition after 24 hrs by standard broth microdilution method; details: ATCC 13883, 24 h
Pseudomonas aeruginosa = experiment: Antimicrobial activity against Pseudomonas aeruginosa ATCC 10145 assessed as bacterial growth inhibition after 24 hrs by standard broth microdilution method; details: ATCC 10145, 24 h
Acinetobacter baumannii = experiment: Antimicrobial activity against Acinetobacter baumannii ATCC 19606 assessed as bacterial growth inhibition after 24 hrs by standard broth microdilution method; details: ATCC 19606, 24 h

SMILES	MIC (Klebsiella pneumoniae)	MIC (Pseudomonas aeruginosa)	MIC (Acinetobacter baumannii)
O=C(O)c1cn(C2CC2)c2cc(N3CCNCC3)c(F)cc2c1=O [CIPROFLOXACIN]	1 µg/mL (≈ 3.02 µM)	1 µg/mL (≈ 3.02 µM)	2 µg/mL (≈ 6.04 µM)
CC[C@H]1CCCC[C@@]2(C[C@@H]3CC[C@@H]4[C@H](C(=O)OCCCCCCCCCCCCCCCC(=O)N(CCCN)C[C@@H](O)CCN)[C@]5(CCC[C@@H](C)O5)N=C(N2)N34)O1 [CRAMBESCIDIN 800]	1 µg/mL (≈ 1.25 µM)	1 µg/mL (≈ 1.25 µM)	2 µg/mL (≈ 2.49 µM)
C[C@H]1COc2c(N3CCN(C)CC3)c(F)cc3c(=O)c(C(=O)O)cn1c23.C[C@H]1COc2c(N3CCN(C)CC3)c(F)cc3c(=O)c(C(=O)O)cn1c23.O [LEVOFLOXACIN]			1 µg/mL
CN(C)[C@@H]1C(O)=C(C(N)=O)C(=O)[C@@]2(O)C(O)=C3C(=O)c4c(O)cccc4[C@@](C)(O)[C@H]3C[C@@H]12 [TETRACYCLINE]	1 µg/mL (≈ 2.25 µM)	1 µg/mL (≈ 2.25 µM)	2 µg/mL (≈ 4.5 µM)
